Measurements published in a melting point compilation (Tetko et al.).

Row | SMILES | melting point [°C]
1 | COC(=O)C(Cl)C(Cl)c1cccc(C(Cl)C(Cl)C(=O)OC)c1 (stereo not drawn) | 131
2 | CS(=O)(=O)Oc1ccccc1 | 62 to 63
3 | O=C(O)c1ccc(F)cc1[N+](=O)[O-] | 149
4 | COc1ccc(C=C(C#N)C(N)=O)cc1 | 321
5 | Cc1cc2nsnc2cc1C | 89 to 90
6 | Cc1[nH]nc(-c2ccccc2)c1C | 104
7 | CC1=CC[C@@H]2[C@@H]3CCC4CC(=O)CC[C@]4(C)[C@H]3CC[C@]12C (stereo partly drawn) | 140 to 141
8 | N#C/C(=N/Nc1cccc2ccccc12)c1nc2ccccc2s1 | 254
9 | CCC(=NNc1cccc(NN=C(CC)C(=O)O)c1)C(=O)O | 190
10 | NNC(=O)C(F)(F)F | 111 to 115
11 | Oc1ccccc1/C=N/n1c(-c2ccccc2)n[nH]c1=S | 209 to 210
12 | NC(=S)Nc1ccc(O)cc1 | 214
13 | Cc1cc(C)c(Cc2cnc(NC3=NCCN3)s2)c(C)c1 | 192 to 194
14 | Cn1c(/C(C#N)=N/Nc2cccc(O)c2)nc2ccccc21 | 285
15 | CCOCCc1ccc(OCCNc2ncnc(CC)c2Cl)c(C)c1C | 70
16 | NC(=S)c1ccc2c(c1)CCO2 | 145 to 155
17 | COc1ccc2c(-c3ccccc3)c(-c3ccccc3)[nH]c2c1 | 210 to 214
18 | C=O | -92
19 | CC(C)(CC(=O)O)c1ccccc1 | 60
20 | O=S(=O)(c1ccc(Cl)cc1)c1cc(Cl)c(Cl)cc1Cl | 147
21 | CCOc1cc(-c2nccc3cc(OC)c(OC)cc23)cc(OCC)c1OCC | 98 to 103
22 | COc1cc2c(c(O)c1OC)C(C)N(C)CC2 (stereo not drawn) | 112
23 | Cc1ccc(-c2ccc(S(=O)(=O)Cl)cc2)cc1 | 107 to 108
24 | O=C(O)c1sccc1Br | 196

Row | SMILES | melting point [°C]
25 | CC(C(=O)O)c1ccc(C(=O)c2ccccc2)s1 (stereo not drawn) | 96
26 | Clc1ccc2scc(CBr)c2c1 | 129 to 130
27 | N#CC(=NOCC1OCCO1)c1ccccc1 | 77.7
28 | O=C(c1ccccc1)c1ccc(C(F)(F)F)c(F)c1 | 66
29 | CC1(C)OC(C)(C(O)C2CCCCC2)CCC1C(=O)O (stereo not drawn) | 181
30 | CC(C)=CCCC(C)C1CCC2(C)C3=C(CCC12C)C1(C)CCC(O)C(C)(C)C1CC3 (stereo not drawn) | 140
31 | Nc1nnc(-c2ccccc2)c(Nc2ccc(Br)cc2)n1 | 203
32 | CSc1nc(NC(C)C)nc(NC(C)C)n1 | 119
33 | CCC(C)C(=O)NC1CCC(=O)N(CCc2ccccc2)C1=O (stereo not drawn) | 108
34 | OCC1CCC(n2cnc3c(O)ncnc32)O1 (stereo not drawn) | 175
35 | NCc1ccc(-c2nccs2)cc1 | 39 to 42
36 | NC(=O)c1ccccc1OC(F)(F)F | 154
37 | COC(=O)c1ccc(N2CCCC2)cc1 | 141 to 143
38 | COc1ccc(CNC2=CC(=O)c3ccccc3C2=O)cc1 | 164
39 | N#CC(C#N)=C(C(=O)Cc1ccccc1)c1ccc([N+](=O)[O-])cc1 | 332 to 334
40 | CN1CCC2=C(C1)C(c1ccccc1)c1ccccc12 (stereo not drawn) | 91
41 | CC(=O)CCc1oc2ccccc2c1-c1ccc(C)o1 | 54
42 | CC(c1ccc(OC(F)=C(F)F)cc1)(c1ccc(OC(F)=C(F)F)cc1)c1ccc(OC(F)=C(F)F)cc1 | 31 to 32
43 | Cc1ccc(COc2cccc(F)c2C#N)cc1 | 81 to 83
44 | CC(=O)Nc1ccc(CC(=O)O)cc1 | 173
45 | CCCCCC(O)CC(=O)CCc1ccc(OC)c(O)c1 (stereo not drawn) | 31
46 | O=Cc1c(Cl)ccc([N+](=O)[O-])c1Cl | 165 to 167
47 | C1CCSCC1 | 19
48 | CC(CC(C)=NO)=NO | 149

Row | SMILES | melting point [°C]
49 | N#Cc1ccccc1S(=O)(=O)Cl | 69 to 70
50 | COc1ccc(OC)c(C=CC(=O)n2cnc3c(N)ncnc32)c1 | 260 to 262
51 | O=C(O)C(=O)Cc1c[nH]c2ccccc12 | 215
52 | FC(F)(F)c1ccc(I)cc1 | -8
53 | COC(=O)c1sc(Br)c(Br)c1O | 129 to 131
54 | Sc1nnc(SCCSc2nnc(S)s2)s1 | 202 to 204
55 | NNC(=O)c1ccc(O)c(N)c1 | 251
56 | Cc1onc(-c2ccc(F)cc2)c1C(=O)Cl | 51 to 55
57 | Cc1cc(C)cc(S(=O)(=O)Cl)c1 | 93
58 | CC(C)OC(=O)Cc1csc(-c2ccc(Cl)cc2)n1 | 82 to 84
59 | O=C1C=C(Nc2ccccc2)C(=O)c2ccccc21 | 193
60 | CN(C)c1ccc(NC(N)=S)cc1 | 190
61 | COP(=S)(OC)Oc1nc(Cl)c(Cl)cc1Cl | 46
62 | OCc1ccc(OCc2ccccc2)cc1 | 86
63 | Cc1ccc2c(Cl)cc(Cl)c(O)c2n1 | 114
64 | O=[N+]([O-])c1cc([N+](=O)[O-])c(/C=C/c2ccccc2)cc1/C=C/c1ccccc1 | 193
65 | CC(=NOCc1cccc(C(=O)O)c1)c1ccc(Cl)cc1 | 154 to 157
66 | Cc1c(C(=O)CBr)cnn1-c1ccccc1 | 94 to 96
67 | CC(C)(C)OC(=O)NC(Cc1ccc(OCc2ccccc2)cc1)C(=O)O (stereo not drawn) | 109
68 | O=S(=O)(Cl)Cc1ccc(C(F)(F)F)cc1 | 104 to 106
69 | Cc1noc(C)c1-c1nc(CCl)no1 | 88 to 90
70 | COc1c(C#N)cc(C)c2c1CCC2 | 62 to 63
71 | Cc1noc(-c2ccccc2CO)n1 | 91 to 92
72 | CCOP(=S)(OCC)SCC(=O)NC(C)C | 28.5

Row | SMILES | melting point [°C]
73 | Cc1ccc(Br)c(C)c1[N+](=O)[O-] | 70
74 | CC12CCC(=O)C=C1CCC1C2CCC2(C)C(OCc3ccccc3)CCC12 (stereo not drawn) | 198 to 199
75 | c1cc2c3c(ccc2c2c1CC2)CC3 | 163
76 | Clc1ccc2c(c1)oc1c(Cl)c(Cl)cc(Cl)c12 | 190
77 | OCc1cccc(Cn2cncn2)c1 | 56 to 59
78 | CC/C=C/CCCC | -110
79 | Cn1c(=O)cc(NN)c2ccccc21 | 216
80 | Clc1ccc(-c2nc3c4ccccc4ccn3n2)cc1 | 238
81 | CC(=O)c1ccc(Oc2ccccc2)cc1 | 52 to 54
82 | CC(C)(C)OC(=O)N1CC(C(=O)O)C1 | 102
83 | CCCCCCCCCCCCOCCOCCOCCOCCOCCOCCO | 27
84 | COc1cc([N+](=O)[O-])ccc1C | 69 to 74
85 | ClCc1nc(-c2ccc(OCc3ccc(Cl)cc3)cc2)no1 | 118
86 | Cc1nn(C)c2ncc3c(=O)[nH]n(C)c3c12 | 300
87 | Cc1c(F)ccc(C#N)c1F | 44
88 | Cc1ccc2[nH]c(S)nc2c1 | 290 to 293
89 | COc1cccc(N(C)C(=S)Oc2cccc(C(C)(C)C)c2)n1 | 86
90 | N#CCN1CCCCC1 | 25
91 | Cc1cc(Br)cc(C)c1N | 50
92 | C=CC(C)(O)CCC1C(C)(O)CCC2C(C)(C)CCCC21C (stereo not drawn) | 97
93 | Nc1c(CN2CCCC2)c(=O)oc2ccccc12 | 197
